{"source": "patent US6586596B2", "about": "“Acetylcholine enhancers” (priority 1998, dated 2003)", "key": {"[1]": {"tested_on": "cycloheximide-induced amnesia", "experiment": "Passive avoidance, cycloheximide-induced memory impairment", "type": "in vivo, male Wistar rats", "conditions": "oral, 30 minutes before acquisition trial; cycloheximide 1.5 mg/kg s.q.", "description": "Cutoff latency was set at 600 seconds.\nRats were treated s.q. with cycloheximide (1.5 mg/kg), a protein synthesis inhibitor, immediately after the electric shock."}, "Cynomologous monkeys [2]": {"tested_on": "Cynomologous monkeys", "experiment": "Hepatotoxic analysis, two-week oral study; on Autopsy, organ weight and histopathology: key: − no remarkable change; ↑ increase; ↓ decrease; + slight; ++ severe (diarrhea); on Blood biochemistry: key: − no remarkable change; ↑ increase; ↓ decrease; + slight; ++ severe (diarrhea); on Body weight: key: − no remarkable change; ↑ increase; ↓ decrease; + slight; ++ severe (diarrhea)", "type": "in vivo", "conditions": "5 mg/kg/day oral, 2 weeks", "excerpt": "The following parameters were examined: body weight, clinical signs, food consumption, blood biochemistry (GOT, GPT, ALP, LDH, γ-GTP, ChE, Bil, T.Pro, Alb, A/G ratio, T.Cho, NEFA, TG). After the administration period, the animals were sacrificed and autopsied. Organs and tissues were weighed, then examined histopathologically."}, "Cynomologous monkeys [3]": {"tested_on": "Cynomologous monkeys", "experiment": "Hepatotoxic analysis, four-week oral study; on Clinical signs vomiting: key: − no remarkable change; ↑ increase; ↓ decrease; + slight; ++ severe (diarrhea)", "type": "in vivo", "conditions": "oral; for Clinical signs vomiting: four weeks (10, 5, 10 mg/kg/day regimens)", "description": "During the testing period, these animals were dosed with three different regimens: first, animals were dosed with 10 mg/kg/day for 7 days, followed by 32 days-washout period, second, animals were dosed with 5 mg/kg/day for 14 days, and thereafter the animals were dosed with 10 mg/kg/day for 7 days. The following parameters were examined: body weight, clinical signs, food consumption, blood biochemistry (GOT, GPT, ALP, LDH, γ-GTP, ChE, Bil, T.Pro, Alb, A/G ratio, T.Cho, NEFA, TG)."}, "[4]": {"tested_on": "scopolamine-induced spatial learning deficit", "experiment": "Water maze, scopolamine-induced deficit in spatial learning", "type": "in vivo, rats", "conditions": "p.o. 60 minutes before each trial; Cm.A 1.0 mg/kg/day; scopolamine 0.5 mg/kg i.p.", "description": "A total of 6 trials (2 trials on 1st day, and 1 trial after 2nd day) were conducted to observe the effects of the test compounds. Scopolamine (0.5 mg/kg, i.p.) and the test compounds (p.o.) were administered 30 and 60 minutes before each trial, respectively."}}}
{"smiles": "COc1c2c(nc3ccccc13)CN(CCC1CCN(Cc3ccccc3)CC1)C2=O", "note": "[Cm.A, 2-[2-(1-benzylpiperizin-4-yl)ethyl]-2,3-dihydro-9-methoxy-1H-pyrrolo[3,4-b]quinolin-1-one hemifumarate]", "values": [{"measurement": "latency in retention trial, cycloheximide-induced amnesia", "setting": "[1]", "value": "prolonged the shortened latency induced by cycloheximide in a nondose dependent manner"}, {"measurement": "clinical signs during the dosing period", "setting": "Cynomologous monkeys [2]", "value": "caused soft stools, but to a lesser extent than the other two compounds"}, {"measurement": "hepatotoxicity", "setting": "Cynomologous monkeys [2]", "value": "no hepatotoxicity"}, {"measurement": "Autopsy, organ weight and histopathology", "setting": "Cynomologous monkeys [2]; F", "value": "−"}, {"measurement": "Blood biochemistry", "setting": "Cynomologous monkeys [2]; F", "value": "−"}, {"measurement": "Body weight", "setting": "Cynomologous monkeys [2]; F", "value": "−"}, {"measurement": "Clinical signs softstool", "setting": "Cynomologous monkeys [2]; F", "value": "+"}, {"measurement": "Clinical signs vomiting", "setting": "Cynomologous monkeys [2]; F", "value": "−"}, {"measurement": "Food consumption", "setting": "Cynomologous monkeys [2]; F", "value": "−"}, {"measurement": "Autopsy, organ weight and histopathology", "setting": "Cynomologous monkeys [2]; M", "value": "−"}, {"measurement": "Blood biochemistry", "setting": "Cynomologous monkeys [2]; M", "value": "−"}, {"measurement": "Body weight", "setting": "Cynomologous monkeys [2]; M", "value": "−"}, {"measurement": "Clinical signs softstool", "setting": "Cynomologous monkeys [2]; M", "value": "+"}, {"measurement": "Clinical signs vomiting", "setting": "Cynomologous monkeys [2]; M", "value": "−"}, {"measurement": "Food consumption", "setting": "Cynomologous monkeys [2]; M", "value": "−"}, {"measurement": "Blood biochemistry", "setting": "Cynomologous monkeys [3]; F, four weeks", "value": "↑: TG"}, {"measurement": "Clinical signs softstool", "setting": "Cynomologous monkeys [3]; F, four weeks", "value": "±"}, {"measurement": "Food consumption", "setting": "Cynomologous monkeys [3]; F, four weeks", "value": "−"}, {"measurement": "Clinical signs vomiting", "setting": "Cynomologous monkeys [3]; F", "value": "−"}, {"measurement": "Blood biochemistry", "setting": "Cynomologous monkeys [3]; M, four weeks", "value": "↑: TG"}, {"measurement": "Clinical signs softstool", "setting": "Cynomologous monkeys [3]; M, four weeks", "value": "−"}, {"measurement": "Food consumption", "setting": "Cynomologous monkeys [3]; M, four weeks", "value": "−"}, {"measurement": "Clinical signs vomiting", "setting": "Cynomologous monkeys [3]; M", "value": "−"}, {"measurement": "blood biochemical tests", "setting": "Cynomologous monkeys [3]; four weeks", "value": "small increase in TG"}, {"measurement": "clinical signs", "setting": "Cynomologous monkeys [3]; four weeks", "value": "minimal adverse clinical signs"}, {"measurement": "food consumption and body weight", "setting": "Cynomologous monkeys [3]; four weeks", "value": "no remarkable change in food consumption and body weight"}, {"measurement": "deficit in spatial learning (escape latency)", "setting": "[4]", "value": "improved the deficit in spatial learning induced by scopolamine"}]}
